Assay [1] relates to TNF-α. Briefly: TNF-α secretion by PMA-treated human keratinocytes (ELISA). The assay is classed as cell-based. To be noted: 0.01% test compound; PMA 10 ng/ml, 6 hours; % change in secreted TNF-α, negative = reduction; Table 2. From the text:
Tumor necrosis factor alpha (TNF-α) assay: The prototype ligand of the TNF superfamily, TNF-α, is a pleiotropic cytokine that plays a central role in inflammation. Increase in its expression is associated with an up regulation in pro-inflammatory activity. This bioassay analyzes the effect of compounds on the production of TNF-α by human epidermal keratinocytes. The endpoint of this assay is a spectrophotometric measurement that reflects the presence of TNF-α and cellular viability. The assay employs the quantitative sandwich enzyme immunoassay technique whereby a monoclonal antibody specific for TNF-α has been pre-coated onto a microplate. Standards and samples are pipetted into the wells and any TNF-α present is bound by the immobilized antibody. After washing away any unbound substances, an enzyme-linked polyclonal antibody specific for TNF-α is added to the wells. Following a wash to remove any unbound antibody-enzyme reagent, a substrate solution is added to the wells and color develops in proportion to the amount of TNF-α bound in the initial step using a microplate reader for detection at 450 nm. The color development is stopped and the intensity of the color is measured.
Subconfluent normal human adult keratinocytes (Cascade Biologics) cultivated in EpiLife standard growth medium (Cascade Biologics) at 37° C. in 5% CO2, were treated with PMA (10 ng/ml, Sigma Chemical, #P1585-1MG) and test compounds for 6 hours. […] Following incubation, cell culture medium was collected and the amount of TNF-a secretion quantified using a sanwhich enzyme linked immuno-sorbant assay (ELISA) from R&D Systems ([…]). Following all manufacturer instructions, medium from treated cells was incubated with antibodies directed against human TNF-α which were bound to microtiter plates. The amount of TNF-α protein was quantified by comparison of optical density units to standard concentrations of purified TNF-α protein. Values are calculated as % change in the amount of TNF-α protein secreted between control and treated samples. […]
A general note: An ELISA detects its analyte on a solid surface through an enzyme-linked reagent.

Assay [2] deals with T1, 15-lipoxygenase (Glycine max, UniProt P08170).
T1 construct: purchased Cayman Chemical 760700
T1 sequence (P08170 1-839): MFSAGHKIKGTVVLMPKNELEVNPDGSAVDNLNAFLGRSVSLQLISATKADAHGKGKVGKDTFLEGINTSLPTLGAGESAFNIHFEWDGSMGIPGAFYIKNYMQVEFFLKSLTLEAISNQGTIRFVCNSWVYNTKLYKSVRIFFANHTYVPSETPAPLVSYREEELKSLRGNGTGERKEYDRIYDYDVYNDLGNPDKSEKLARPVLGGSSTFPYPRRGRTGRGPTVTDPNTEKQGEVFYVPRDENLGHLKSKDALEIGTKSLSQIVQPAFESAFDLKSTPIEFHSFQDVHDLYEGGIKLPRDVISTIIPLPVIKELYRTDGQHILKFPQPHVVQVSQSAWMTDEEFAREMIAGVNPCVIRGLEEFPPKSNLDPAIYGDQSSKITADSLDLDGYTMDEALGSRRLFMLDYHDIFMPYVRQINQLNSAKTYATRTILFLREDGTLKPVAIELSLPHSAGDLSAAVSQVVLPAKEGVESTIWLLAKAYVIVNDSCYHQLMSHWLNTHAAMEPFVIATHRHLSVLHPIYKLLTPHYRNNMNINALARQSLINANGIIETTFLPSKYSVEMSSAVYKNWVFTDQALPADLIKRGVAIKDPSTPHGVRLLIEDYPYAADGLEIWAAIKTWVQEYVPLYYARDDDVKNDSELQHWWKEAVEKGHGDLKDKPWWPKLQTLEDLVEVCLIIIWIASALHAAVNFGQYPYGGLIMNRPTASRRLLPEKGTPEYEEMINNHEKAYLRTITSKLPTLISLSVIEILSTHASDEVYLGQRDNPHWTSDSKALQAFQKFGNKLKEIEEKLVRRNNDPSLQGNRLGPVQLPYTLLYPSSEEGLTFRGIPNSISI
As to the kind of experiment: Lipoxygenase (LO) inhibition assay. The assay is classed as biochemical. To be noted: 0.1% test compound; negative = inhibition vs non-treated control; Table 2. The procedure: Lipoxygenase (LO) assay: An in vitro lipoxygenase (LO) inhibition assay. LOs are non-heme iron-containing dioxygenases that catalyze the addition of molecular oxygen to fatty acids. Linoleate and arachidonate are the main substrates for LOs in plants and animals. […] This assay provides an accurate and convenient method for screening lipoxygenase inhibitors by measuring the hydroperoxides generated from the incubation of a lipoxygenase (5-, 12-, or 15-LO) with arachidonic acid.
Following incubation, arachidonic acid was added to initiate the reaction and mixtures incubated for an additional 10 min at room temperature. Colorimetric substrate was added to terminate catalysis and color progression was evaluated by fluorescence plate reading at 490 nm. The percent inhibition of lipoxyganse activity was calculated compared to non-treated controls to determine the ability of test compounds to inhibit the activity of purified enzyme.

As for “3-(4-ethylphenyl)-2,2-dimethylpropanal and 3-(2-ethylphenyl)-2,2-dimethylpropanal [Floralozone]”, in assay [1], the “TNF-α Inhibition (0.01%)” value was −33.20%. Same read-out and setting: as for `CCCCCCCCC(C)C=O` (stereo not shown) [Aldehyde C-11 MOA, 2-methyldecanal], the figure is −38.68%. As for `CCCCCC/C=C/C(=O)OC` [Neofolione, methyl non-2-enoate], in assay [2], the “LO Inhibition (0.1%)” value is on record as −27.46%. Besides, in assay [1], the “TNF-α Inhibition (0.01%)” value is recorded as −53.90%.
